# From US20150056310A1, “COSMETIC METHOD FOR INCREASING COLLAGEN EXPRESSION IN SKIN COMPRISING TOPICALLY APPLYING AN EXTRACT OF QUASSIA AMARA” (BASF Beauty Care Solutions France S.A.S., priority 2013, published 2015)
# Test system: type I collagen protein expression in dermal fibroblast cells
# Assay: Increase in type I collagen protein expression in dermal fibroblast cells cultured in vitro (immunolabelling, confocal microscopy, image analysis)
# Assay type: cell-based, human
# Conditions: 3 days, dermal fibroblasts, ratio relative to nontreated cells (NT = 1), mean of 4 assays
# Method: A Q. amara wood extract at 5% (w/w) obtained according to Example 1a) was tested on dermal fibroblast cells cultured in vitro. The extract was tested at final concentrations of 0.01% and 0.05% by volume in the culture medium. Preferentially, the final concentration was 0.01% (v/v).
# Specifically, dermal fibroblasts from the abdomen of a donor were seeded into a culture chamber (8-well) and amplified in FGM (Fibroblast Growth Media) culture medium containing an antibiotic, normocin, for 3 or 4 days until confluence, the cell stage for which 100% of the cultured cells adhere to one another, forming a uniform cell layer.
# The confluent cells were then treated in this same culture medium for 3 days with a Q. amara wood extract at a final concentration in the culture medium of 0.01% or 0.05% (v/v) (Table 1). Other control active ingredients were tested (Table 1): vitamin C (50 μg/ml) or retinaldehyde (1 μM) or TGFβ1 (1 ng/ml) (Transforming Growth Factor β1).
# The culture media (FGM) containing the dermal fibroblast cells treated with an active agent, or the nontreated culture media, contained moreover 5 μg/ml of vitamin C, enabling the newly synthesized collagen to be secreted out of the cell.
# After 3 days of incubation, the cells were rinsed with a phosphate buffered saline (PBS) buffer containing calcium, magnesium and antibiotics, and then fixed in cold methanol for 10 minutes with a view to performing immunolabelling.
# An anti-type I collagen antibody was added to the medium with a view to performing immunolabelling.
# The increase in type I collagen protein expression was observed by confocal microscopy (LSM 700, Zeiss, LePecq, France) and quantified by image analysis (FIG. 1).
# The type I collagen protein expression was calculated as a ratio relative to a theoretical expression equal to 1 in the case of nontreated fibroblast cells (NT). The mean protein expression was obtained through the mean of 4 distinct assays (Table 1).
compound,measurement,setting,value
"CC1=C(/C=C/C(C)=C/C=C/C(C)=C/C=O)C(C)(C)CCC1 [Retinaldehyde, retinaldehyde]",Mean increase in type I collagen protein expression,1 μM,2.06
"TGFβ: Transforming Growth Factor β1, control active ingredient",Mean increase in type I collagen protein expression,1 ng/ml,1.42
"O=C1O[C@H]([C@@H](O)CO)C(O)=C1O [Vitamin C, vitamin C]",Mean increase in type I collagen protein expression,50 μg/ml,2.31
